Measured values published in US6077509A, “Peptide fragments of myelin basic protein” (Autoimmune, Inc., priority 1995, dated 2000).

B1: proteolipid protein (protein, UniProt P60201 2-277, looked up)
Myelin proteolipid protein: GLLECCARCLVGAPFASLVATGLCFFGVALFCGCGHEALTGTEKLIETYFSKNYQDYEYLINVIHAFQYVIYGTASFFFLYGALLLAEGFYTTGAVRQIFGDYKTTICGKGLSATVTGGQKGRGSRGQHQAHSLERVCHCLGKWLGHPDKFVGITYALTVVWLLVFACSAVPVYIYFNTWTTCQSIAFPSKTSASIGSLCADARMYGVLPWNAFPGKVCGSNLLSICKTAEFQMTFHLFIAAFVGAAATLVSLLTFMIAATYNFAVLKLMGRGTKF
B2: myelin basic protein (protein, UniProt P25188 1-167, looked up)
Myelin basic protein: ASQKRPSQRHGSKYLATASTMDHARHGFLPRHRDTGILDSIGRFFGSDRAAPKRGSGKDSHHAARTTHYGSLPQKSQRSQDENPVVHFFKNIVTPRTPPPSQGKGRGLSLSRFSWGAEGQKPGFGYGGRADYKSKGFKGAHDAQGTLSKIFKLGGRDSRSGSPMARR

Columns and labels:
[1] = system: short term T-cell lines from peripheral blood mononuclear cells; assay: Proliferation assay of short term T-cell lines for reactivity to MBP, PLP and overlapping MBP peptides; format: cell-based, human; conditions: for mean frequency of T-cell lines selectively reactive to the peptide, MS vs controls (FIG. 1): MS patients compared with combined controls
Method: A rapid T-cell cloning technique was used to examine whether there were immunodominant epitopes on human MBP reactive with Class II MHC phenotypes and the frequency of such reactivity. A total of 15,824 short term T-cell lines were generated from 51 human subjects by culturing peripheral blood mononuclear cells ([…]) with purified MBP (100 μg) followed 3 days later, and then every 3-4 days, by the addition of interleukin-2 (IL-2; from ABI, Columbia, Md.) and 2 units recombinant interleukin-4 (IL-4; Genzyme, Boston, Mass.). On Day 13 of culture, an aliquot from each line was tested for reactivity to MBP using the following proliferation assay: T-cell clones (1×10^5 cells/well) were plated in triplicate and cocultured with appropriate stimuli (i.e. 100 μg whole MBP or 5% IL-2) for 72 hours at 37° C., 90% humidity, 5% CO2, in 96 well flat bottomed microtiter plates (Costar). The cells were pulsed with 2 μCi [^3 H]TdR (2 Ci/mmole, New England Nuclear, Boston, Mass.) for the last 18 hours of culture. APCs were prepared by pulsing human Epstein-Barrvirus transformed human B-cells (the virus being commercially available from ATCC) or L-cells which are mouse cells transfected with human DR2 (L-cells are commercially available from ATCC under accession No. ATCC-CCL1 and can be transfected according to the method of Wilkinson, D. et al, J. Exp. Med., 1988, 167:1442-1458 using-DNA encoding DR2 as per Wu, S. et al J. Immunol., 1987, 138:2953). B-cells or L-cells were used at 1×10^6 cells/well in complete media either in the presence or absence of 40 pM MBP or phospholipid protein (PLP) for 2 hours at 37° C., washing twice with 4° C. […]
Subjects with other central nervous system diseases had the following diagnoses: 1-3 weeks after either cerebrovascular accident (n=4), brain trauma with CNS hemorrhage (n=4), or metastatic brain tumor (n=2). […] In addition, the frequency of MBP and PLP-reactive lines was calculated separately for each subject by dividing the number of MBP-reactive lines by the total number of lines generated and the mean values +/- SEM are given. […]

actively induced EAE = assay: Actively induced EAE (MBP/CFA immunization), clinical score; format: in vivo, Lewis rats; conditions: for suppression of EAE via IV tolerization: intravenously prior to immunization for actively induced disease (FIG. 7)

| Molecule | mean frequency of T-cell lines selectively reactive to the peptide, MS vs controls (FIG. 1) [1] | suppression of EAE via IV tolerization (actively induced EAE) | also measured |
| --- | --- | --- | --- |
| HHPARTAHYGSLPQKSEGRT [61-82] | Significant but less striking increases in reactivity |  |  |
| histone |  |  | mean maximal score (actively induced EAE; IV injection before immunization with MBP/CFA, clinical scale 0-5): 3.0±0.3 |
| 131-150: Control guinea pig MBP peptide 131-150 (DYKSKGFKGAHDAQGTLSKI; UniProt P25188 131-150, looked up, fragment) |  | did not suppress | suppression of EAE via oral tolerization (actively induced EAE; orally prior to immunization for actively induced disease (FIG. 7)): did not suppress |
| FKGVDAQGTLSKIFKLGGRD [143-168, human MBP amino acid residues 143-168] | both MS and control subjects showed high frequencies |  |  |
| B1 |  |  | MEAN FREQUENCY OF Ag REACTIVE LINES ([1]; other neurological disease (n = 10), mean +/- SEM): 0.90 ± 0.62 |
| B2 |  | suppression of EAE |  |
